We go through five compounds from publication PMC6010089, “Isothiocyanates: cholinesterase inhibiting, antioxidant, and anti-inflammatory activity” (Journal of Enzyme Inhibition and Medicinal Chemistry, 2018).

Experiment [1] deals with T1, COX-2 (Homo sapiens, UniProt P35354).
T1 construct: gene PTGS2
T1 sequence (P35354 18-604): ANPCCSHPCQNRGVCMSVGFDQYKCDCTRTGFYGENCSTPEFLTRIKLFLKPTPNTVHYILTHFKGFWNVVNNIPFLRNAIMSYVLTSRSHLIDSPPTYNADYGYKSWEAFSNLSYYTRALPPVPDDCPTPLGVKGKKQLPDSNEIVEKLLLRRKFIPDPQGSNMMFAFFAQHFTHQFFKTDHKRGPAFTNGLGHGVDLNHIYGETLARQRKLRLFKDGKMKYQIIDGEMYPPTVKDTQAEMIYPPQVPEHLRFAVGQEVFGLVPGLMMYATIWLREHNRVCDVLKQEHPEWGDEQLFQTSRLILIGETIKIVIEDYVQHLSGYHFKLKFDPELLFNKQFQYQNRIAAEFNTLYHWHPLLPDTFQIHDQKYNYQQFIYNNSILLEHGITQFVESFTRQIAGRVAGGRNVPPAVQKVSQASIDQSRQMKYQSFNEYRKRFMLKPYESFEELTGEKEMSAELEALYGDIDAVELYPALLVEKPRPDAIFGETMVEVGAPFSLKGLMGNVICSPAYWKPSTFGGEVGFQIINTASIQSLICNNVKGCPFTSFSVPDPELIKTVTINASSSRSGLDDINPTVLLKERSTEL
Description: Cayman human COX-2 inhibitor screening kit, PGF2alpha ELISA. In kind it is biochemical. The settings on record: read-out: COX-2 / Inhibition (%)^b.

Experiment [2] addresses T1, COX-2. Briefly: biochemical. More on the design: COX-2 inhibitor screening kit, 10 min preincubation, arachidonic acid 2 min, PGF2alpha ELISA at 412 nm. Particulars: read-out: COX-2 / Inhibition (%)^b. How it is done: To analyse the inhibition of the COX-2 enzyme activity mediated by the selected ITCs, the COX-2 (human) inhibitor screening assay kit from Cayman was used. In summary, the COX-2 enzyme was incubated with the samples (having final concentration in the assay of 50 μM, in 96% ethanol) for 10 min at 37 °C and subsequently the reaction was initiated by adding arachidonic acid and incubating the mixture for 2 min at 37 °C. The background tubes correspond to inactivated COX-2 enzyme obtained after keeping the tubes containing enzymes in boiling water for 3 min along with sample solvent. Enzyme catalysis was blocked by adding saturated stannous chloride solution. Prostaglandin (PGF2α) release was quantified using ELISA at 412 nm. Indomethacin solution (having final concentration in the assay of 10 μM, in 96% ethanol) was used as a positive control.

The target in experiment [3] is T2, butyrylcholinesterase (BChE) (Equus caballus, UniProt P81908). Briefly: modified Ellman assay. Format: biochemical. More on the design: from equine serum.
T2 sequence (P81908 whole entry): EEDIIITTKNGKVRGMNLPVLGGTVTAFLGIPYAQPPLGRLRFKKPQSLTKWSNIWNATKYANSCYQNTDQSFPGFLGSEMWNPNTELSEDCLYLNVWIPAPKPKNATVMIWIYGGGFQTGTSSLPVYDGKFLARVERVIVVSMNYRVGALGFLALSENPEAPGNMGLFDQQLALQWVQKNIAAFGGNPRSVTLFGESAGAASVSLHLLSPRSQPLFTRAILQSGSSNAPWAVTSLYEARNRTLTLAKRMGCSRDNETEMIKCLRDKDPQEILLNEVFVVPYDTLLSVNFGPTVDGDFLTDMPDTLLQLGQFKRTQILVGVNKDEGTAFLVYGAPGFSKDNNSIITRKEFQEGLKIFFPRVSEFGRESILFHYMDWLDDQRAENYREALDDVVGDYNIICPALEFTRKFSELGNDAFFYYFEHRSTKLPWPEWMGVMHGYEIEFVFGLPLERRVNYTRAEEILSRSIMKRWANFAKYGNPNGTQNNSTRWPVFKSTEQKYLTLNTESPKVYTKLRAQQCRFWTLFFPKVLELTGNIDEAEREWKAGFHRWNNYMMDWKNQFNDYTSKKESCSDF
Experiment [4] concerns the target T3, acetylcholinesterase (AChE) (Electrophorus electricus, UniProt O42275). Description: biochemical. Particulars: read-out: AChE / Inhibition (%)^a.
In experiment [5] the target is T3, acetylcholinesterase (AChE). Description: modified Ellman assay. In kind it is biochemical. Details: electric eel, type V-S.
Experiment [6] addresses T2, butyrylcholinesterase (BChE). Description: biochemical. Particulars: read-out: BChE / Inhibition (%)^a.

Where two headings read alike, the source gives them in different places.

T3 sequence (O42275 24-633): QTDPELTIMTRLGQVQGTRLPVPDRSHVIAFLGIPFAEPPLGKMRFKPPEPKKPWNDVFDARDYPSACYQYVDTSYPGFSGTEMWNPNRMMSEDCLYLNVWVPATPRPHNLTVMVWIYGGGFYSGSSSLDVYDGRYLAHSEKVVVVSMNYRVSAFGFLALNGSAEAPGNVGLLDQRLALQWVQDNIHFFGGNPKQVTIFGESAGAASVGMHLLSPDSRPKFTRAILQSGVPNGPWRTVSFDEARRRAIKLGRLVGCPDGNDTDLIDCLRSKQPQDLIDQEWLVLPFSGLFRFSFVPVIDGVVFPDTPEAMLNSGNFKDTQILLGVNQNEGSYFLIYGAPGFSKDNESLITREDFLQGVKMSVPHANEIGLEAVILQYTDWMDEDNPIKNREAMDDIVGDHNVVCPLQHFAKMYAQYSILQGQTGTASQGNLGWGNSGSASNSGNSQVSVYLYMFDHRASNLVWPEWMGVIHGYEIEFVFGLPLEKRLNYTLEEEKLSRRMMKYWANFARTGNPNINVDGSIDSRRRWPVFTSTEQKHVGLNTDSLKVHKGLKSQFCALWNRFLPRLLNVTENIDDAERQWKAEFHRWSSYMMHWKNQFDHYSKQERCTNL

Take `S=C=Nc1ccccc1` [compound 1, phenyl isothiocyanate]: the inhibition at 50 µM on COX-2 [1] was 98.9 ± 0.3%.
On to `Cc1ccc(N=C=S)cc1` [compound 5, 4-Methylphenyl ITC], for which, on COX-2 [2], the inhibition at 50 µM amounted to 13.6 ± 0.8%. Moreover, the figures for the inhibition at 1140 µM in experiment [3] and in experiment [4] were 40.7 ± 0.7% and 58.4 ± 1.1%, respectively. Besides, the IC50 in experiment [5] was 930 µM.
For the compound `COc1ccccc1N=C=S` [compound 7, 2-Methoxyphenyl ITC], the inhibition at 50 µM at COX-2 [1] is 99 ± 0.7%. The inhibition at 1140 µM in experiment [6] came to 19.5 ± 0.1%; in experiment [4], 57 ± 1.5%. Besides, the IC50 in experiment [5] (read-out: AChE / IC50) amounted to 570 µM.
`COc1cccc(N=C=S)c1` [compound 8, 3-Methoxyphenyl ITC]: the inhibition at 1140 µM in experiment [4] amounted to 61.4 ± 1.6%. In experiment [5] (read-out: AChE / IC50), the IC50 was determined as 1000 µM.
Consider `CSCCCN=C=S` [compound 11, 3-(Methylsulfanyl)propyl ITC], for which, on COX-2 [1], the inhibition at 50 µM was 48 ± 0.3%. Moreover, the inhibition at 1140 µM in experiment [6] was determined as 15.4 ± 0.3%; in experiment [4], 4.4 ± 0.7%.
